The results in this text go back to US5538949A, “Modified platelet factor-4 and cleaved platelet factor 4” (Eli Lilly and Company, priority 1995, dated 1996).

For one assay, the system named is endothelial cells. Kind of assay: Endothelial cell proliferation inhibition assay. The class given is cell-based, bovine. Conditions: endothelial cells with 20 ng/ml fibroblast growth factor, four days growth, cell count; for IC50, inhibition of endothelial cell proliferation: average of 4 wells; for IC50: molar figure in parentheses. The method, then:
Primary retinal capillary endothelial cell cultures were prepared in substantial accordance with the procedure described in Buzney et al., Retinal Vascular Endothelial Cells and Pericytes: Differential Growth Characteristics in vitro, Invest. Ophthalmol. Visual Sci. 24: 470-483 (1983) and separated from contaminating cells as described in Voyta et al., Identification and Isolation of Endothelial Cells Based on their Increased Uptake of Acetylated-low density Lipoprotein, J. Cell Biol. 99: 2034-2040 (1981).
Alternatively, bovine heart endothelial cells were obtained (American Type Culture Collection; Rockville, Md. 20852) for use in the assay. Irrespective of source, the endothelial cells were seeded into 24 well tissue culture plates at a cell density of 10,000 cells/well in Dulbecco's modified Eagle Medium (GIBCO; Grand Island, N.Y.) supplemented with 5% bovine serum albumin, 1% penicillin-streptomycin, 1% L-glutamine, and 20 ng/ml fibroblast growth factor. Immediately after seeding the cells, various amounts of PF-4 (Sigma Chemical Co.; St. Louis, Mo. 63178), MPF-4, or CPF-4 (isolated as describe in the above examples) were added to individual growth wells. MPF-4 and CPF-4 were tested at final concentrations ranging from 0.001 to 1 μ/ml. For comparison, native PF-4 was tested over a range of 0.001 to 3 μ/ml, and supplemented medium alone served as the negative control. The endothelial cell cultures were allowed to grow for four days at 37 C., 5% CO2 in a humidified tissue culture incubator. The cultures were then harvested individually by trypsinization and counted using a Zm-Coulter Counter (Coulter Electronics. Inc.; Opa Locka, Fla. 33054).
The results were plotted in FIG. 1, and each point on the graph represented the average of 4 data points; ie […]. […] The inhibitory concentration for MPF-4 is close to the physiological range of PF-4 found in human plasma (Id.).

The nature of assay [1]: Heparin affinity chromatography. Conditions: elute in high-affinity heparin binding fraction (0.7M to 2.0M NaCl). The text has this:
The eluted proteins are then contacted with a heparin affinity resin. The ordinarily skilled artisan will readily realize that this step is best achieved in a column chromatography mode. Heparin affinity columns are commercially available from some of the same vendors mentioned above. In this step, the molecules of interest, both MPF-4 or CPF-4, bind to the heparin column and are eluted using an increasing linear salt gradient. The preferred salt is NaCl, and the portion of the gradient that is preferably collected is the 0.1-2.0M portion. The more highly preferred portion of the gradient to collect is the 0.7-2.0M portion.
The C4-pool was further fractionated by heparin affinity chromatography on a Econo-pac™ 5 ml heparin-sepharose cartridge (BioRad, Richmond, Calif. 94804). The bound proteins were eluted by a linear gradient of 0 to 2.0M NaCl in phosphate buffer saline (PBS) at a flow rate of 2.0 ml/min. The proteins that eluted from the column were pooled into three fractions: (1) non-heparin binding (flow through), (2) low-affinity heparin binding (0 to 0.7M NaCl), and (3) high-affinity heparin binding (0.7M to 2.0M NaCl) fractions.

Positions of bridges follow the written chain, without caps; N, C: chain ends. Chains are numbered I, II in the order given. No end group written: not given here.

Take “MPF-4: 54 amino acid protein, SEQ ID NO:1; homologous with the 54 C-terminal residues of PF-4, beginning with Ser-17 (SQVRPRHITSLEVIKAGPHCPTAQLIATLKNGRKICLDLQAPLYKKIIKKLLES)”: in the assay with endothelial cells, the “IC50, inhibition of endothelial cell proliferation” value (from here on “IC50, inhibition”) fell in the range of 0.03 to 0.05 µg/mL and the IC50 is roughly 7 nM. Also, the heparin binding result in assay [1] is recorded as “bind heparin”.

In the case of “PF-4: native human platelet factor-4 (Sigma Chemical Co.), tested for comparison [reference compound]”, in the assay on endothelial cells, the “IC50, inhibition” value lay within 0.8 to 1 µg/mL and the IC50 was roughly 130 nM.

B1: CPF-4: 16 amino acid chain (SEQ ID NO:2) disulfide bonded to the 54 amino acid chain of MPF-4 (SEQ ID NO:1) (protein)
chain 1: EAEEDGDLQCLCVKTT
chain 2: SQVRPRHITSLEVIKAGPHCPTAQLIATLKNGRKICLDLQAPLYKKIIKKLLES
modifications: disulfide I:10-II:20, I:12-II:36; not fully specified
Consider B1, for which, in the assay with endothelial cells, the “IC50, inhibition” value is “approximately 150 ng/ml” and the 50% inhibitory concentration (IC50) turned out to be 20 nM. In addition, in assay [1], the heparin binding entry was “bind heparin”.
